Data taken from ChEMBL document CHEMBL5620355, “Discovery of intracellular self-assembly protein degraders driven by tumor-specific activatable bioorthogonal reaction” (Eur J Med Chem, 2023).
Values belong to the compound of their own block, whether it stands above or below them. Active and inactive are the calls of the source. The calls are words filed in the database; no cut-off is given here.

Assays:
U-87 MG [1] = experiment: Induction of apoptosis in human U87 cells assessed as necrotic cells at 20 uM incubated for 48 hrs in presence of 4-(4-(3-(4-chloro-3-(trifluoromethyl)phenyl)ureido)phenoxy)-N-(prop-2-yn-1-yl)picolinamide by Annexin V-FLTC/PI staining based flow cytometry (reference value: 0.60 %); assay type: functional, U-87MG ATCC
U-87 MG [2] = experiment: Induction of apoptosis in human U87 cells assessed as early apoptotic cells at 20 uM incubated for 48 hrs in presence of 4-(4-(3-(4-chloro-3-(trifluoromethyl)phenyl)ureido)phenoxy)-N-(prop-2-yn-1-yl)picolinamide by Annexin V-FLTC/PI staining based flow cytometry (reference value: 8.95 %); assay type: functional, U-87MG ATCC
U-87 MG [3] = experiment: Induction of apoptosis in human U87 cells assessed as late apoptotic cells at 1 uM incubated for 48 hrs in presence of 4-(4-(3-(4-chloro-3-(trifluoromethyl)phenyl)ureido)phenoxy)-N-(prop-2-yn-1-yl)picolinamide by Annexin V-FLTC/PI staining based flow cytometry (reference value: 3.71 %); assay type: functional, U-87MG ATCC
U-87 MG [4] = experiment: Induction of apoptosis in human U87 cells assessed as late apoptotic cells at 0.1 uM incubated for 48 hrs in presence of 4-(4-(3-(4-chloro-3-(trifluoromethyl)phenyl)ureido)phenoxy)-N-(prop-2-yn-1-yl)picolinamide by Annexin V-FLTC/PI staining based flow cytometry (reference value: 3.71 %); assay type: functional, U-87MG ATCC
[5] = target: Platelet-derived growth factor receptor beta (Homo sapiens) (UniProt P09619); experiment: Induction of PDGFR-beta degradation in human U87 cells at 10 uM incubated for 48 hrs by Western blot analysis; assay type: cell-based
[6] = target: Vascular endothelial growth factor receptor 2 (Homo sapiens) (UniProt P35968); experiment: Induction of VEGFR2 degradation in human U87 cells at 10 uM incubated for 48 hrs in presence of 4-(4-(3-(4-chloro-3-(trifluoromethyl)phenyl)ureido)phenoxy)-N-(prop-2-yn-1-yl)picolinamide by Western blot analysis; assay type: cell-based
[7] = Stability of compound in H2O by HPLC analysis; assay type: physicochemical
U-87 MG [8] = experiment: Antiproliferative activity against human U87 cells incubated for 48 hrs in presence of 4-(4-(3-(4-chloro-3-(trifluoromethyl)phenyl)ureido)phenoxy)-N-(prop-2-yn-1-yl)picolinamide by MTT assay; assay type: functional, cell-based, U-87MG ATCC
U-87 MG [9] = experiment: Induction of apoptosis in human U87 cells assessed as necrotic cells at 1 uM incubated for 48 hrs in presence of 4-(4-(3-(4-chloro-3-(trifluoromethyl)phenyl)ureido)phenoxy)-N-(prop-2-yn-1-yl)picolinamide by Annexin V-FLTC/PI staining based flow cytometry (reference value: 0.60 %); assay type: functional, U-87MG ATCC
U-87 MG [10] = experiment: Induction of apoptosis in human U87 cells assessed as necrotic cells at 0.1 uM incubated for 48 hrs in presence of 4-(4-(3-(4-chloro-3-(trifluoromethyl)phenyl)ureido)phenoxy)-N-(prop-2-yn-1-yl)picolinamide by Annexin V-FLTC/PI staining based flow cytometry (reference value: 0.60 %); assay type: functional, U-87MG ATCC
U-87 MG [11] = experiment: Induction of apoptosis in human U87 cells assessed as late apoptotic cells at 10 uM incubated for 48 hrs in presence of 4-(4-(3-(4-chloro-3-(trifluoromethyl)phenyl)ureido)phenoxy)-N-(prop-2-yn-1-yl)picolinamide by Annexin V-FLTC/PI staining based flow cytometry (reference value: 3.71 %); assay type: functional, U-87MG ATCC
A549 = experiment: Antiproliferative activity against human A549 cells incubated for 48 hrs in presence of 4-(4-(3-(4-chloro-3-(trifluoromethyl)phenyl)ureido)phenoxy)-N-(prop-2-yn-1-yl)picolinamide by MTT assay; assay type: functional, cell-based; conditions: A549, 48 h
U-87 MG [12] = experiment: Induction of apoptosis in human U87 cells assessed as early apoptotic cells at 10 uM incubated for 48 hrs in presence of 4-(4-(3-(4-chloro-3-(trifluoromethyl)phenyl)ureido)phenoxy)-N-(prop-2-yn-1-yl)picolinamide by Annexin V-FLTC/PI staining based flow cytometry (reference value: 8.95 %); assay type: functional, U-87MG ATCC
U-87 MG [13] = experiment: (§1) Induction of apoptosis in human U87 cells assessed as viable cells at 20 uM incubated for 48 hrs in presence of (2S,4R)-1-((S)-2-(5-azidopentanamido)-3,3-dimethylbutanoyl)-4-hydroxy-N-(4-(4-methylthiazol-5-yl)benzyl)pyrrolidine-2-carboxamide by Annexin V-FLTC/PI staining based flow cytometry (reference value: 86.74 %); assay type: functional, U-87MG ATCC; conditions: read-out: Activity
[14] = target: Vascular endothelial growth factor receptor 2 (Homo sapiens) (UniProt P35968); experiment: Induction of VEGFR2 degradation in human U87 cells at 10 uM incubated for 48 hrs in presence of 4-azido-N-(2-(2,6-dioxopiperidin-3-yl)-1,3-dioxoisoindolin-4-yl)butanamide by Western blot analysis; assay type: cell-based
[15] = target: Platelet-derived growth factor receptor beta (Homo sapiens) (UniProt P09619); experiment: Induction of PDGFR-beta degradation in human U87 cells upto 10 uM incubated for 48 hrs by Western blot analysis; assay type: cell-based
U-87 MG [16] = experiment: (§2) Induction of apoptosis in human U87 cells assessed as necrotic cells at 20 uM incubated for 48 hrs in presence of (2S,4R)-1-((S)-2-(5-azidopentanamido)-3,3-dimethylbutanoyl)-4-hydroxy-N-(4-(4-methylthiazol-5-yl)benzyl)pyrrolidine-2-carboxamide by Annexin V-FLTC/PI staining based flow cytometry (reference value: 0.60 %); assay type: functional, U-87MG ATCC
[17] = target: Platelet-derived growth factor receptor beta (Homo sapiens) (UniProt P09619); experiment: Induction of PDGFR-beta degradation in human U87 cells at 10 uM incubated for 48 hrs in presence of 4-azido-N-(2-(2,6-dioxopiperidin-3-yl)-1,3-dioxoisoindolin-4-yl)butanamide by Western blot analysis; assay type: cell-based
U-87 MG [18] = experiment: Induction of apoptosis in human U87 cells assessed as early apoptotic cells at 1 uM incubated for 48 hrs in presence of (2S,4R)-1-((S)-2-(5-azidopentanamido)-3,3-dimethylbutanoyl)-4-hydroxy-N-(4-(4-methylthiazol-5-yl)benzyl)pyrrolidine-2-carboxamide by Annexin V-FLTC/PI staining based flow cytometry (reference value: 8.95 %); assay type: functional, U-87MG ATCC
[19] = target: Serine/threonine-protein kinase B-raf (Homo sapiens) (UniProt P15056); experiment: Induction of BRAF degradation in human U87 cells upto 10 uM incubated for 48 hrs by Western blot analysis; assay type: cell-based
U-87 MG [20] = experiment: as §2, with “10” for “20”; assay type: functional, U-87MG ATCC
HEK293 = experiment: Cytotoxicity against HEK293 cells at high concentration incubated for 48 hrs in presence of 4-azido-N-(2-(2,6-dioxopiperidin-3-yl)-1,3-dioxoisoindolin-4-yl)butanamide by MTT assay; assay type: toxicity, cell-based; conditions: human, hek293, 48 h
U-87 MG [21] = experiment: Induction of cell cycle arrest at S phase in human U87 cells incubated for 48 hrs in presence of (2S,4R)-1-((S)-2-(5-azidopentanamido)-3,3-dimethylbutanoyl)-4-hydroxy-N-(4-(4-methylthiazol-5-yl)benzyl)pyrrolidine-2-carboxamide by PI staining based flow cytometry; assay type: functional; conditions: U-87MG ATCC, dose 0.1-1 µM
U-87 MG [22] = experiment: as §1, with “0.1” for “20”; assay type: functional, U-87MG ATCC; conditions: read-out: Activity
[23] = target: Vascular endothelial growth factor receptor 2 (Homo sapiens) (UniProt P35968); experiment: Induction of VEGFR2 degradation in human U87 cells at 2 uM incubated for 48 hrs in presence of (2S,4R)-1-((S)-2-(5-azidopentanamido)-3,3-dimethylbutanoyl)-4-hydroxy-N-(4-(4-methylthiazol-5-yl)benzyl)pyrrolidine-2-carboxamide by Western blot analysis; assay type: cell-based
U-87 MG [24] = experiment: Induction of apoptosis in human U87 cells assessed as early apoptotic cells at 20 uM incubated for 48 hrs in presence of (2S,4R)-1-((S)-2-(5-azidopentanamido)-3,3-dimethylbutanoyl)-4-hydroxy-N-(4-(4-methylthiazol-5-yl)benzyl)pyrrolidine-2-carboxamide by Annexin V-FLTC/PI staining based flow cytometry (reference value: 8.95 %); assay type: functional, U-87MG ATCC
U-87 MG [25] = experiment: Induction of apoptosis in human U87 cells assessed as late apoptotic cells at 0.1 uM incubated for 48 hrs in presence of (2S,4R)-1-((S)-2-(5-azidopentanamido)-3,3-dimethylbutanoyl)-4-hydroxy-N-(4-(4-methylthiazol-5-yl)benzyl)pyrrolidine-2-carboxamide by Annexin V-FLTC/PI staining based flow cytometry (reference value: 3.71 %); assay type: functional, U-87MG ATCC

Vascular endothelial growth factor receptor 2 (Homo sapiens), sequence (P35968 whole entry): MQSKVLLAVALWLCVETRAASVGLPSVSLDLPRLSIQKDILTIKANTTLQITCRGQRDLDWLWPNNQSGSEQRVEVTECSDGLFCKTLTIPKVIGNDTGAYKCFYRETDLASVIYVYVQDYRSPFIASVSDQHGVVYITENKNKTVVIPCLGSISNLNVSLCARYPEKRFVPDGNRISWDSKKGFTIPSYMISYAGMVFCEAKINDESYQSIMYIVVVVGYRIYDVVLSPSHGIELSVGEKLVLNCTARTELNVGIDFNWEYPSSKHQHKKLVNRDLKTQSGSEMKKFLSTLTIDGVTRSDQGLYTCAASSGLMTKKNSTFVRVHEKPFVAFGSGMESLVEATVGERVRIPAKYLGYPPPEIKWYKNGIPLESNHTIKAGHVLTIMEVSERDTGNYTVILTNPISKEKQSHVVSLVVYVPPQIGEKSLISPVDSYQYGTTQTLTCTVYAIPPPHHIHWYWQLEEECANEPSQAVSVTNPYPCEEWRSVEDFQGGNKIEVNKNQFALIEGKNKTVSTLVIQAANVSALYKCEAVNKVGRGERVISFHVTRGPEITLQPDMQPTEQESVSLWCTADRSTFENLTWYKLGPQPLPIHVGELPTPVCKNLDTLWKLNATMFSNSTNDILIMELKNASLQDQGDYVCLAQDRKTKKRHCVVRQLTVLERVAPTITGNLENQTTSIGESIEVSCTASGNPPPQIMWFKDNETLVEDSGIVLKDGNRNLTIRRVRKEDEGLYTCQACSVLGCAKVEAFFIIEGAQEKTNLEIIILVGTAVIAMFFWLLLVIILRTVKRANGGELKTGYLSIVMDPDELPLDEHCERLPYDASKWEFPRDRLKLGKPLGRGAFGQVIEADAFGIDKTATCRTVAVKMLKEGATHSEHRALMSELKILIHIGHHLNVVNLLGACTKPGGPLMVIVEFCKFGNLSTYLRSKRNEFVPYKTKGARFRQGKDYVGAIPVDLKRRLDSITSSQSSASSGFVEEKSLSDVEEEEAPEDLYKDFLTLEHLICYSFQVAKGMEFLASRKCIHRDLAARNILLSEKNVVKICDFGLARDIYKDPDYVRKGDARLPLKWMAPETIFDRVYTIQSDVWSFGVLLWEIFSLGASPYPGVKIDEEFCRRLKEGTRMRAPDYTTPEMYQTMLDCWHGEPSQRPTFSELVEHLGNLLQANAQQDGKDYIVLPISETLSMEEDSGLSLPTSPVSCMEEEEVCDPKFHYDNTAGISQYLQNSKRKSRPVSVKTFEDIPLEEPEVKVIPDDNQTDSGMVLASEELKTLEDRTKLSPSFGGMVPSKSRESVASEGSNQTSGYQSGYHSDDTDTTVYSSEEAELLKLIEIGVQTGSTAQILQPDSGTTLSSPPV
Platelet-derived growth factor receptor beta (Homo sapiens), sequence (P09619 whole entry): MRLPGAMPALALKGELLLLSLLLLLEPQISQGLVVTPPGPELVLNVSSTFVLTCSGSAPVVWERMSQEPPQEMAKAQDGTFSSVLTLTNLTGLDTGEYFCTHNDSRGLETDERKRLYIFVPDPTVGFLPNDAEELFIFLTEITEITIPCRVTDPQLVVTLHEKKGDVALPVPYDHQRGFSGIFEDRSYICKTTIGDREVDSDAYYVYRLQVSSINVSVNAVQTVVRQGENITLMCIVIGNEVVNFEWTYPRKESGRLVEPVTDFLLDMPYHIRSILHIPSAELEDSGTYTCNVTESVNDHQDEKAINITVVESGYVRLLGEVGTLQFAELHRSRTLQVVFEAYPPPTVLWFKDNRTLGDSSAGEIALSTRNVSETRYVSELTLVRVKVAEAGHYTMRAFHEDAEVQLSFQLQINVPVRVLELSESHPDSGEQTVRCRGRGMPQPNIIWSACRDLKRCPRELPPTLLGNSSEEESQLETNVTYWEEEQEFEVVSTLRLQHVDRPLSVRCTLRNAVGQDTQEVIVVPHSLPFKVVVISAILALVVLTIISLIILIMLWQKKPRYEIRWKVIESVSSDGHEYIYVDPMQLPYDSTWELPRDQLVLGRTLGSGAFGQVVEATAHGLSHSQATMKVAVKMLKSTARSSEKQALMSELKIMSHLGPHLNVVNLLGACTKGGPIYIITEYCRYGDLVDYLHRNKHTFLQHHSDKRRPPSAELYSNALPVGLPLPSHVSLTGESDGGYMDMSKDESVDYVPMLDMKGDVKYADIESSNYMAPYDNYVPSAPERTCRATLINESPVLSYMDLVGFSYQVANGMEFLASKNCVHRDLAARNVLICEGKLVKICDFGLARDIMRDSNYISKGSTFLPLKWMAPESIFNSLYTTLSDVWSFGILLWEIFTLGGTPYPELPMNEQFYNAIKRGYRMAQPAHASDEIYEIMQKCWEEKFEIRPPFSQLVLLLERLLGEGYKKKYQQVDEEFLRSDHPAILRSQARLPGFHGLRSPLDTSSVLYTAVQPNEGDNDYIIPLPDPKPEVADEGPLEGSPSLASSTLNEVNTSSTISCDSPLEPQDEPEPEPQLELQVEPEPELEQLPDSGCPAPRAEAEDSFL
Serine/threonine-protein kinase B-raf (Homo sapiens), sequence (P15056 whole entry): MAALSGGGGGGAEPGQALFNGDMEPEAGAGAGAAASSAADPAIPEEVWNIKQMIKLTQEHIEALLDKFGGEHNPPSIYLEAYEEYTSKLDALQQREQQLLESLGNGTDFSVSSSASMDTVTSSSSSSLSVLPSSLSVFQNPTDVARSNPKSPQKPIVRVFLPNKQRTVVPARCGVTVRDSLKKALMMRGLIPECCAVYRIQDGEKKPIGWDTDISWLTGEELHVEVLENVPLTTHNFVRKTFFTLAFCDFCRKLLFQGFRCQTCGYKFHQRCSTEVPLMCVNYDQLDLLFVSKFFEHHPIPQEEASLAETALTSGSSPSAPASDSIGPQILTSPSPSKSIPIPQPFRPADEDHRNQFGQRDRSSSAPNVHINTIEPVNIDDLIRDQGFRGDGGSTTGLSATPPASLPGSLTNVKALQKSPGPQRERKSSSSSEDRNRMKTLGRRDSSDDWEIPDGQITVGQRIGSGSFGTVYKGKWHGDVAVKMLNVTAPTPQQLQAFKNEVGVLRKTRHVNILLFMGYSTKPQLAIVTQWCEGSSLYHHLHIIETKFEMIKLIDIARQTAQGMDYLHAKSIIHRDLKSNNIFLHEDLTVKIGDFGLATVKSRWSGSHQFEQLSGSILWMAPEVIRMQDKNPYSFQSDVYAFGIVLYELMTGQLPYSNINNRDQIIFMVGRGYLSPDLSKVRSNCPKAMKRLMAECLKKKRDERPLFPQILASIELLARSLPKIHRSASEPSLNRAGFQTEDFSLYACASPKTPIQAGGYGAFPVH

Activity [5]: Active
Activity [6]: Active
Stability [7]: Stable
IC50 (U-87 MG [8]): 5.68 µM
IC50 (A549): 1160 nM
Structure (SMILES): [N-]=[N+]=NCCCC(=O)Nc1cccc2c1C(=O)N(C1CCC(=O)NC1=O)C2=O (configuration not stated)
Activity (U-87 MG [1]): 6.36%
Activity (U-87 MG [2]): 4.73%
Activity (U-87 MG [3]): 5.43%
Activity (U-87 MG [4]): 3.35%
Activity (U-87 MG [9]): 1.26%
Activity (U-87 MG [10]): 1.02%
Activity (U-87 MG [11]): 72.58%
Activity (U-87 MG [12]): 0.08%

Activity [14]: Active
Activity [15]: inactive
Activity [17]: Active
Activity [19]: inactive
Activity [23]: Active
Structure (SMILES): C#CCNC(=O)c1cc(Oc2ccc(NC(=O)Nc3ccc(Cl)c(C(F)(F)F)c3)cc2)ccn1
viability at 20 µM (U-87 MG [13]): 9.88%
Activity (U-87 MG [16]): 6.36%
Activity (U-87 MG [18]): 11.69%
Activity (U-87 MG [20]): 25.6%
Activity (HEK293): Toxic
Activity (U-87 MG [21]): Dose-Dependent Effect
viability at 0.1 µM (U-87 MG [22]): 85.3%
Activity (U-87 MG [24]): 4.73%
Activity (U-87 MG [25]): 3.35%
